Common to all, as to format: biochemical
One assay concerns the target PI3Kγ (Homo sapiens, UniProt P48736). The assay is described as follows: PI3K-gamma fluorescence polarization assay. The note with it: 20 μM PIP2, 25 μM ATP; read-out: PI3Kγ Median IC50. The procedure:
PI3K-alpha and PI3K-gamma Fluorescence Polarization Assay Protocols
The reaction buffer was 20 mM HEPES pH 7.5, 2 mM MgCl2, 0.05% CHAPS, and 0.01% βME (added fresh). The substrate solution was 40 μM PIP2 (diC8, Echelon, Salt Lake City Utah cat # P-4508, 1 mM in water) and 50 μM ATP in the reaction buffer. Nunc 384-well black polypropylene fluorescent plates were used for PI3K assays. The assay is run by putting 9.5 μl of freshly diluted enzyme in the reaction buffer per well, adding 0.5 μl of diluted drug or DMSO, and mixing. Then 10 μl of the substrate solution is added to each well to start the reaction. A final concentration of 20 μM PIP2 and 25 μM ATP in the reaction was used. Reactions were allowed to proceed for 30-60 minutes at room temperature. After 30-60 minutes, 20 μl of a solution of 10 nM TAMRA detector (Red detector probe-Echelon) and 2.5 μM of GST-murineGRP (1.5 mg/ml in 17% glycerol) was added per well to stop the reaction. The resulting solution was mixed well and allowed to stand for 90-110 minutes before reading plate. Assay Plates were read on Perkin-Elmer Envision plate readers with appropriate filters for Tamra [BODIPY-TMRI(1,3,4,5)P4]. Data obtained were used to calculate enzymatic activity and enzyme inhibition by inhibitor compounds. It is important to keep Red probe solutions dark. This procedure is adapted from Echelon Biosciences Inc procedure for their PI3-Kinase fluorescence polarization activity Assay kit Product number K-1100.

A further assay deals with PI3Kα (Homo sapiens, UniProt P42336). The assay is described as follows: PI3K-alpha fluorescence polarization assay. The note with it: 20 μM PIP2, 25 μM ATP; read-out: PI3Kα Median IC50.
Chain of PI3Kα (P42336 whole entry, species assumed): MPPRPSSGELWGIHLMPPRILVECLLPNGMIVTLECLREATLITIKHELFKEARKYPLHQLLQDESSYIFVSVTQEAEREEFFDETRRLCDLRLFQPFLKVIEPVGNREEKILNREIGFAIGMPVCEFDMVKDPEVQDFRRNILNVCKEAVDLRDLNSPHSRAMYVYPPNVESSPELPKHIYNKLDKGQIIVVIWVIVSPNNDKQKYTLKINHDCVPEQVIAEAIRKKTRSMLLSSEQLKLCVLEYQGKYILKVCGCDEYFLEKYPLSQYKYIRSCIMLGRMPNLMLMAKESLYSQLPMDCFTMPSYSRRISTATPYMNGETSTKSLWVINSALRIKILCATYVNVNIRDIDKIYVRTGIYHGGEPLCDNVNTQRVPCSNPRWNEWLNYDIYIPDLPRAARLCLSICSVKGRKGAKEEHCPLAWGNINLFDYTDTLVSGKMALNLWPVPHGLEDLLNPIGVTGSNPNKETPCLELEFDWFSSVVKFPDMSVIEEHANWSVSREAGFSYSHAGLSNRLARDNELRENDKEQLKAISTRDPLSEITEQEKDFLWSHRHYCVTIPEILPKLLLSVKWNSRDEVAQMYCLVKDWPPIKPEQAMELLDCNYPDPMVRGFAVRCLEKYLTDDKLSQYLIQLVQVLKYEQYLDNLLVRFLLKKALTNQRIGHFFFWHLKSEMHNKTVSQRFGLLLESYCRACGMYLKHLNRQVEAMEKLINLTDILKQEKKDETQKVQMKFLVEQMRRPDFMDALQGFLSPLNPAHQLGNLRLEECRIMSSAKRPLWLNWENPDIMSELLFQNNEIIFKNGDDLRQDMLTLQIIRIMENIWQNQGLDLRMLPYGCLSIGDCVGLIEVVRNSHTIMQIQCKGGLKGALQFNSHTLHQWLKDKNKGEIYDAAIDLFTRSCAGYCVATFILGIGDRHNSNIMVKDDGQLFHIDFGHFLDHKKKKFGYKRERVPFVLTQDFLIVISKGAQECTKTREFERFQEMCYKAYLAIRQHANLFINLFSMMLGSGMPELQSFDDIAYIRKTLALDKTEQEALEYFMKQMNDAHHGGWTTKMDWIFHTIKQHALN
Chain of PI3Kα (P27986 whole entry partner, species assumed): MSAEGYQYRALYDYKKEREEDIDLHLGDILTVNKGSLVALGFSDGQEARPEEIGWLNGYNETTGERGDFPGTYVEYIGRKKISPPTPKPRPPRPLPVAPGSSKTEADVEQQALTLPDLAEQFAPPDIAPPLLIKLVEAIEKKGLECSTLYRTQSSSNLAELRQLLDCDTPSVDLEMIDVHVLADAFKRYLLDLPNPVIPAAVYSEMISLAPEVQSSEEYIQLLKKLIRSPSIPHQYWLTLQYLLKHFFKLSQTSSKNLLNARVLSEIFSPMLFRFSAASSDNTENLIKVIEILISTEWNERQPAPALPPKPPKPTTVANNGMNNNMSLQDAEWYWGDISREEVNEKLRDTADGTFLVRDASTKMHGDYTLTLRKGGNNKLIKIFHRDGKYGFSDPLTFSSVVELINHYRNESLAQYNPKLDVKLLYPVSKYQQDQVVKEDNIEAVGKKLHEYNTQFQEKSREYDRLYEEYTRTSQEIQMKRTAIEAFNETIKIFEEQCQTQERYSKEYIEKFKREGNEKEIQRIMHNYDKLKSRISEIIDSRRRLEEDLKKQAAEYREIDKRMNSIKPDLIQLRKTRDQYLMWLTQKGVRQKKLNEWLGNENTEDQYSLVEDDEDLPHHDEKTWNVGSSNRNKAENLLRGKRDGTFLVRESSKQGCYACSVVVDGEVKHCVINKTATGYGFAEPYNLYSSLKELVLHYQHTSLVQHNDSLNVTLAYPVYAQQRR
For the next assay, the target named is T1, mTOR Kinase (FLAG-TOR) (Homo sapiens, UniProt P42345).
T1 construct: FLAG
The assay is described as follows: mTOR kinase assay, purified enzyme, DELFIA format. Particulars: 100 μM ATP, 1.25 μM His6-S6K; read-out: mTOR Kinase Median IC50.

Molecules are shown by their SMILES.

Chain of PI3Kγ (P48736 whole entry, species assumed): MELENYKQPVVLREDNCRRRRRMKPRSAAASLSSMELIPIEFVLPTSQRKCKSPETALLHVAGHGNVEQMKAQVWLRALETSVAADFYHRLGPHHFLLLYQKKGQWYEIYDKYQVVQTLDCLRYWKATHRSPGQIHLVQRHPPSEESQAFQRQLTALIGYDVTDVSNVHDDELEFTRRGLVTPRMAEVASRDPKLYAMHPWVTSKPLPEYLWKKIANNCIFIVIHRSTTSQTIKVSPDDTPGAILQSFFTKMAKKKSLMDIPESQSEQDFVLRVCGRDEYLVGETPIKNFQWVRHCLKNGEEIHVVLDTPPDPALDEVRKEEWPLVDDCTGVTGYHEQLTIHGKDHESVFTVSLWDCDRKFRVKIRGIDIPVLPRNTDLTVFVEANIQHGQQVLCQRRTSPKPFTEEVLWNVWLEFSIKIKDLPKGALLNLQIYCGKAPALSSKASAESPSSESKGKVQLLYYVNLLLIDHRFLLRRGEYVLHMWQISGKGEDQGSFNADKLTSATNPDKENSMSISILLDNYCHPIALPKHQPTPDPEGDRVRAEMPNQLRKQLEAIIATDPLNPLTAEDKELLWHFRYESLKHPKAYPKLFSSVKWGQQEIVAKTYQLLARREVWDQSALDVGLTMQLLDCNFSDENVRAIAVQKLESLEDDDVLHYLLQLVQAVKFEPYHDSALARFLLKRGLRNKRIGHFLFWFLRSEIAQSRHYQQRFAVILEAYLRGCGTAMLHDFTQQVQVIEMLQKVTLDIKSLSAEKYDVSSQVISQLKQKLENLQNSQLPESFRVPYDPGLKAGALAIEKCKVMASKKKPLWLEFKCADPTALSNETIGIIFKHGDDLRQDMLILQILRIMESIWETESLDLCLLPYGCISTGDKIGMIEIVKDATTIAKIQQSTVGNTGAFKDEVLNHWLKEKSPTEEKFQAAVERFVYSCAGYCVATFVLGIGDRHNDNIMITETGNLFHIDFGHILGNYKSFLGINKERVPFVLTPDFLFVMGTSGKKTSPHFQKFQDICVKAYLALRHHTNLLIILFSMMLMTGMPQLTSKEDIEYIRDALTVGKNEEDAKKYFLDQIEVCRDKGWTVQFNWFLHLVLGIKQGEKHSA

With `CCn1ccc2c(N3CCOCC3)nc(-c3ccc(NC(=O)Nc4ccc(C(=O)N5CCC(N(C)C)CC5)cc4)cc3)nc21` [Compound 65, 1-(4-{[4-(dimethylamino)piperidin-1-yl]carbonyl}phenyl)-3-[4-(7-ethyl-4-morpholin-4-yl-7H-pyrrolo[2,3-d]pyrimidin-2-yl)phenyl]urea], the results for the IC50 on PI3Kγ, at PI3Kα and at mTOR Kinase (FLAG-TOR) were 0.02 µM, 0.0011 µM and 0.00109 µM, respectively.
For `O=C(Nc1ccncc1)Nc1ccc(-c2nc(N3CCOCC3)c3ccn(CCNCCc4cnc[nH]4)c3n2)cc1` [Compound 30, 1-{4-[7-(2-{[2-(1H-imidazol-5-yl)ethyl]amino}ethyl)-4-morpholin-4-yl-7H-pyrrolo[2,3-d]pyrimidin-2-yl]phenyl}-3-pyridin-4-ylurea], in that order: 0.245 µM, 0.014 µM and 0.0107 µM.
Taken in the same sequence, the figures for `CC1(C)CN(C(=O)c2ccc(NC(=O)Nc3ccc(-c4nc(N5CCOCC5)c5ccn(CC(F)(F)F)c5n4)cc3)cc2)CCN1` [Compound 55, 1-{4-[(3,3-dimethylpiperazin-1-yl)carbonyl]phenyl}-3-{4-[4-morpholin-4-yl-7-(2,2,2-trifluoroethyl)-7H-pyrrolo[2,3-d]pyrimidin-2-yl]phenyl}urea] were 0.015 µM, less than 0.0019 µM and 0.00094 µM.
For `CNc1nc2cc(-c3nc(N4CCOCC4)c4ccn(CC(F)(F)F)c4n3)ccc2[nH]1` [Compound 48, N-methyl-5-[4-morpholin-4-yl-7-(2,2,2-trifluoroethyl)-7H-pyrrolo[2,3-d]pyrimidin-2-yl]-1H-benzimidazol-2-amine], in that order: 3.66 µM, 1.2 µM and 0.34 µM.
As for `NC(=O)Nc1cccc(Cn2ccc3c(N4CCOCC4)nc(-c4ccc(NC(=O)Nc5ccncc5)cc4)nc32)c1` [Compound 20, 1-(4-{7-[3-(carbamoylamino)benzyl]-4-morpholin-4-yl-7H-pyrrolo[2,3-d]pyrimidin-2-yl}phenyl)-3-pyridin-4-ylurea], the results for the IC50 at PI3Kγ, on PI3Kα and on mTOR Kinase (FLAG-TOR) were 0.196 µM, 0.061 µM and 0.0035 µM, respectively.
For `CN(C)CCn1ccc2c(N3CCOCC3)nc(-c3ccc(N)cc3)nc21` [Compound 8, 4-{7-[2-(dimethylamino)ethyl]-4-morpholin-4-yl-7H-pyrrolo[2,3-d]pyrimidin-2-yl}aniline], in that order: more than 10 µM, 2.98 µM and more than 3.75 µM.
As to `CC(C)n1ccc2c(N3CCOCC3)nc(-c3ccc(NC(=O)Nc4ccc(C(=O)N5CCN(C)CC5)cc4)cc3)nc21` [Compound 82, 1-[4-(7-isopropyl-4-morpholin-4-yl-7H-pyrrolo[2,3-d]pyrimidin-2-yl)phenyl]-3-{4-[(4-methylpiperazin-1-yl)carbonyl]phenyl}urea], the IC50 amounted to 0.038 µM at PI3Kγ, 0.0033 µM on PI3Kα and 0.0015 µM on mTOR Kinase (FLAG-TOR).
Taken in the same sequence, the figures for `c1cc(-c2nc(N3CCOCC3)c3cc[nH]c3n2)c2cn[nH]c2c1` [Compound 3, 2-(1H-indazol-4-yl)-4-morpholin-4-yl-7H-pyrrolo[2,3-d]pyrimidine] were 10.8 µM, 0.83 µM and 1.2 µM.
For the compound `CCn1ccc2c(N3CCOCC3)nc(-c3ccc(NC(=O)Nc4ccc(C(=O)NCCOC)cc4)cc3)nc21` [Compound 78, 4-({[4-(7-ethyl-4-morpholin-4-yl-7H-pyrrolo[2,3-d]pyrimidin-2-yl)phenyl]carbamoyl}amino)-N-(2-methoxyethyl)benzamide], the figures for the IC50 at PI3Kγ, at PI3Kα and at mTOR Kinase (FLAG-TOR) were 0.118 µM, 0.0095 µM and 0.00115 µM, respectively.
For `CCn1ccc2c(N3CCOCC3)nc(-c3ccc(NC(=O)Nc4ccc(C(=O)N5CCOCC5)cc4)cc3)nc21` [Compound 66, 1-[4-(7-ethyl-4-morpholin-4-yl-7H-pyrrolo[2,3-d]pyrimidin-2-yl)phenyl]-3-[4-(morpholin-4-ylcarbonyl)phenyl]urea], the half-inhibitory concentration (IC50) on PI3Kγ stood at 0.03 µM; at PI3Kα, 0.0035 µM; on mTOR Kinase (FLAG-TOR) it was 0.0024 µM.
Taken in the same sequence, the figures for `CCn1ccc2c(N3CCOCC3)nc(-c3ccc(NC(=O)Nc4ccc(C(=O)N5CCC(N6CCCCC6)CC5)cc4)cc3)nc21` [Compound 72, 1-[4-(1,4′-bipiperidin-1′-ylcarbonyl)phenyl]-3-[4-(7-ethyl-4-morpholin-4-yl-7H-pyrrolo[2,3-d]pyrimidin-2-yl)phenyl]urea] were 0.028 µM, 0.0035 µM and 0.0014 µM.
Regarding `O=C(Nc1ccncc1)Nc1ccc(-c2nc(N3CCOCC3)c3ccn(CC4NC(=O)NC4=O)c3n2)cc1` (stereo not drawn) [Compound 35, 1-(4-{7-[(2,5-dioxoimidazolidin-4-yl)methyl]-4-morpholin-4-yl-7H-pyrrolo[2,3-d]pyrimidin-2-yl}phenyl)-3-pyridin-4-ylurea], the results for the IC50 on PI3Kγ, on PI3Kα and on mTOR Kinase (FLAG-TOR) were 0.1 µM, 0.012 µM and 0.00155 µM, respectively.
In the case of `CN(C)CCNC(=O)Nc1ccc(-c2nc(N3CCOCC3)c3ccn(CC(F)(F)F)c3n2)cc1` [Compound 41, 1-[2-(dimethylamino)ethyl]-3-{4-[4-morpholin-4-yl-7-(2,2,2-trifluoroethyl)-7H-pyrrolo[2,3-d]pyrimidin-2-yl]phenyl}urea], the results for the 50% inhibitory concentration (IC50) at PI3Kγ, on PI3Kα and on mTOR Kinase (FLAG-TOR) were 0.664 µM, 0.154 µM and 0.11 µM, respectively.
`CC(C)n1ccc2c(N3CCOCC3)nc(-c3ccc(NC(=O)Nc4ccncc4)cc3)nc21` [Compound 79, 1-[4-(7-isopropyl-4-morpholin-4-yl-7H-pyrrolo[2,3-d]pyrimidin-2-yl)phenyl]-3-pyridin-4-ylurea]: the concentration for half-maximal inhibition (IC50) on PI3Kγ was 0.193 µM; on PI3Kα, 0.028 µM; at mTOR Kinase (FLAG-TOR), 0.00115 µM.
Taken in the same sequence, the figures for `O=C(Nc1ccc(CO)cc1)Nc1ccc(-c2nc(N3CCOCC3)c3ccn(CC(F)(F)F)c3n2)cc1` [Compound 40, 1-[4-(hydroxymethyl)phenyl]-3-{4-[4-morpholin-4-yl-7-(2,2,2-trifluoroethyl)-7H-pyrrolo[2,3-d]pyrimidin-2-yl]phenyl}urea] were 0.08 µM, 0.012 µM and 0.00109 µM.
For `CCn1ccc2c(N3CCOCC3)nc(-c3ccc(NC(=O)Nc4ccc(C(=O)N5C[C@@H](C)N[C@@H](C)C5)cc4)cc3)nc21` [Compound 64, 1-(4-{[(3R,5S)-3,5-dimethylpiperazin-1-yl]carbonyl}phenyl)-3-[4-(7-ethyl-4-morpholin-4-yl-7H-pyrrolo[2,3-d]pyrimidin-2-yl)phenyl]urea], in that order: 0.013 µM, less than 0.0017 µM and 0.0018 µM.
For the compound `CC(C)n1ccc2c(N3CCOCC3)nc(-c3ccc(NC(=O)Nc4ccc(C(=O)NCCN(C)C)cc4)cc3)nc21` [Compound 86, N-[2-(dimethylamino)ethyl]-4-({[4-(7-isopropyl-4-morpholin-4-yl-7H-pyrrolo[2,3-d]pyrimidin-2-yl)phenyl]carbamoyl}amino)benzamide], the IC50 is 0.05 µM at PI3Kγ, 0.0017 µM at PI3Kα and 0.00038 µM at mTOR Kinase (FLAG-TOR).
For `O=C(Nc1ccncc1)Nc1ccc(-c2nc(N3CCOCC3)c3ccn(CCNc4ccc(F)cc4)c3n2)cc1` [Compound 25, 1-[4-(7-{2-[(4-fluorophenyl)amino]ethyl}-4-morpholin-4-yl-7H-pyrrolo[2,3-d]pyrimidin-2-yl)phenyl]-3-pyridin-4-ylurea], in that order: 0.418 µM, 0.041 µM and 0.033 µM.

Source of the values: US20100003250A1, “(2-ARYL-7H-PYRROLO[2,3-D]PYRIMIDIN-4-YL)MORPHOLINE COMPOUNDS, THEIR USE AS MTOR KINASE AND PI3 KINASE INHIBITORS, AND THEIR SYNTHESES” (Wyeth, priority 2008, published 2010).
